According to patent US6784165B1, “Treatment of heart rhythm disturbances with N6-substituted-5′-(N-substituted) carboxamidoadenosines” (Aderis Pharmaceuticals, Inc., priority 1999, dated 2004):

Columns and labels:
conscious rats = assay: Heart rate and blood pressure in conscious unrestrained rats (intravenous or oral); assay type: in vivo, rat
Description: (§1) Male Sprague-Dawley rats were anesthetized with sodium pentobarbital 50 mg/kg i.p., and indwelling catheters were surgically implanted in the carotid artery and jugular vein two days prior to each experiment. During all subsequent experiments, rats were conscious and unrestrained. The carotid artery cannula was attached to a pressure transducer and blood pressure was recorded continuously throughout each experiment using a Grass polygraph. Heart rate was derived from the blood pressure signal using a Grass tachygraph. The measured parameters were allowed from 30 to 90 minutes to stabilize before the administration of test compound.
Compound A was administered by intravenous administration via the jugular vein indwelling catheter or by oral gavage using a curved, bulbed oral dosing cannula. Food and water were available ad libitum.

[1] = system: guinea pig isolated heart; assay: Guinea pig isolated heart paced at 300-360 bpm: AV conduction interval versus coronary perfusate flow
Description: Guinea pig isolated hearts were prepared according to the methods described in Example 5. In the first portion of the experiment designed to determine the effect of heart rate on the negative dromotropic activity of Compound A, hearts were allowed to beat spontaneously or electrically paced either at 200 beats per minute (approximately 20% above the spontaneous rate) or at 300-360 beats per minute (approximately 80% above the spontaneous rate). Atrioventricular (AV) conduction interval (AV interval) was determined as the time from the atrial stimulus to the beginning of ventricular depolarization. The AV interval measurements were performed at each pacing rate with increased concentrations of Compound A as described in Example 5. Upon electrical pacing at 200 beats per minute, Compound A at a mean concentration of 3.9 nM produced a mean maximal 58% increase in AV interval, and heart block at a mean minimal concentration of 5.1 nM. […] The results are summarized in the table below, with data from spontaneously beating hearts included for comparative purposes:
In order to determine the differential potencies of Compound A for negative […] activity versus coronary vasodilation in paced hearts, a different set of experiments was conducted in which individual hearts were used to collect measurements for each action. Experimental conditions as described in Example 6 were used, with guinea pig isolated hearts being paced at 300-360 beats per minute. AV conduction interval was determined as described in Example 6. Coronary perfusate flow data was determined by measuring the volume of fluid leaving the heart. AV conduction interval data and coronary perfusate flow data were collected in the presence of increasing concentrations of Compound A. The results are shown in FIG. 3, with dose-related increases for both AV conduction interval and coronary perfusate flow. The differential for these effects is readily apparent. The mean concentration of Compound A that produced a maximal increase in AV conduction time was 0.76 nM.

adenosine A1 receptor [2] = biological target: T1, adenosine A1 receptor (Rattus norvegicus, UniProt P25099); assay: Negative inotropic response in electrically stimulated rat isolated left atria (isoproterenol-stimulated); set-up: from tissue; host or cells: whole animal (conscious Sprague-Dawley rats); conditions: plateau negative inotropic response, 1 Hz, isoproterenol 10^−8 M
T1 sequence (P25099 1-326): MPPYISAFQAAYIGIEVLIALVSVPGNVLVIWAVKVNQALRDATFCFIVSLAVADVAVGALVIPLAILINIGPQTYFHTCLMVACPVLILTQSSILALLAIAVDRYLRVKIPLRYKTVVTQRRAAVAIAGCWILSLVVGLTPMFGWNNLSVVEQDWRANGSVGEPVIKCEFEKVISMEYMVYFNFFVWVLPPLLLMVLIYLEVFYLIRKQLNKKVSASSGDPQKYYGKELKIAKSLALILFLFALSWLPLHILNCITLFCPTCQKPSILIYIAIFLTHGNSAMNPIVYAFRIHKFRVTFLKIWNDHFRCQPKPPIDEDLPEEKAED
Text: (§2) Concentration dose-effect curve data were fitted to a sigmoid curve using Graphpad PRIZM™ software to obtain the concentration or dose of test compound that produces 50% of the maximal obtainable response, in vitro EC50 or in vivo ED50 values, for activation of the adenosine A1 receptor. Responses measured to each dose were the plateau negative inotropic response to cumulative additions of test compound in the isolated left atria and the peak bradycardia in response to bolus intravenous injections of test compound in conscious rats. Oral bioavailability was estimated from pharmacodynamic responses using the expression: (Response AUCoral/Response AUCiv)(Doseiv/Doseoral), where Response AUC is the area under the curve for test compound-induced bradycardia over time.
Male Sprague-Dawley rats weighing 200-350 grams were sacrificed and the hearts rapidly removed and placed in a warmed Krebs-Henseleit buffer solution. The left atria were dissected free from the hearts and suspended in 30 mL jacketed isolated organ baths filled with Krebs-Henseleit buffer, oxygenated with 95% O2/5% CO2 and maintained at 37° C. Tissues were connected to a force displacement transducer under a resting tension of 1 gram. Atria were stimulated electrically at 1 Hz, 1 msec duration and supramaximal voltage to produce regular contractions of tissue.
Adenosine A1 agonists were added to the baths at increasing cumulative concentrations until a maximal decrease in the force of contraction was obtained. Because adenosine A1 agonists have only a small direct negative inotropic action in rat atria, it was necessary to stimulate β-adrenergic receptors to produce positive inotropy in order to maximize the negative intropic response and thereby facilitate measurement. Under these conditions, adenosine A1 agonists acting at A1 receptors indirectly reduce the β-adrenergic mediated positive inotropy. Accordingly, the β-adrenergic agonist isoproterenol (10^−8 M) was added to the organ baths approximately 15 minutes before the addition of the adenosine A1 agonist.

adenosine A1 receptor [3] = biological target: T1, adenosine A1 receptor; assay: Peak bradycardia after bolus intravenous injection in conscious rats; assay type: in vivo; set-up: from tissue; host or cells: whole animal (conscious Sprague-Dawley rats); conditions: rat, bolus intravenous injections, read-out: ED50
Text: as §2, §1
Test compounds were administered either by oral gavage using a curved, bulbed oral dosing cannula, or by intravenous administration via the jugular vein indwelling catheter. Rats dosed orally were fasted overnight before dosing, with water available ad libitum. Because the heart rate responses following intravenous administration of test compound rapidly returned to baseline, more than one dose of test compound could be administered to each rat. However, the responses to oral administration of test compounds were of a prolonged duration and therefore only a single dose could be administered to each rat.

adenosine A1 receptor [4] = biological target: T1, adenosine A1 receptor; assay: Rat isolated Langendorff heart paced at 360 bpm: AV conduction (S-V interval) and coronary blood flow; set-up: Rat isolated hearts were prepared according to the method of Langendorff; from tissue; host or cells: rat isolated perfused heart (Langendorff); conditions: rat isolated heart paced at 360 beats per minute
Description: Rat isolated hearts were prepared according to the method of Langendorff in which the coronary vasculature was perfused in a retrograde fashion at constant pressure via the aorta. Coronary blood flow was determined by measuring the volume of fluid leaving the heart. Heart rate was maintained at 360 beats per minute by electrical pacing of the right atrium. Atrioventricular (AV) conduction was determined as the time from the atrial stimulus to the beginning of ventricular depolarization (S-V interval).

[5] = 0.1 μg/kg/min intravenously for 120 minutes
[6] = paced at 300-360 beats per minute

Structure (SMILES): CCNC(=O)[C@H]1O[C@@H](n2cnc3c(NC4CCCC4)ncnc32)[C@H](O)[C@@H]1O [Compound A, ethyl N^6-cyclopentyladenosine-5′-uronamide]
- mean blood pressure (conscious rats; [5]): remained unchanged
- mean decrease in heart rate (conscious rats; [5]): 34%
- mean decrease in heart rate (conscious rats; 100 μg/kg oral): 40%
- change in blood pressure (conscious rats; intravenous dose range 0.05 μg/kg/min to 0.1 μg/kg/min): no change
- ED50 for induction of bradycardia (conscious rats; intravenously for 120 minutes, conscious rats): 0.1 µg/kg/min
- change in blood pressure (conscious rats; oral dose range 30 μg/kg to 100 μg/kg): no change
- EC50 ([1]; Cavia porcellus, paced at 300-360 beats per minute, read-out: EC50 for increase in coronary perfusate flow): 32 nM
- mean coronary perfusate flow rate reached ([1]; increase from a mean flow rate of 8.5 mL/min, paced at 300-360 bpm): 14.2 mL/min
- mean concentration producing heart block [1, 6]: 1.09 nM
- mean concentration that produced a maximal increase in AV conduction time [1, 6]: 0.76 nM
- potency at slowing AV conduction versus increasing coronary perfusate flow [1, 6]: greater than 40 fold
- mean maximal increase in AV interval ([1]; paced at 300-360 beats per minute, at 0.76 nM): 23%
- EC50 (adenosine A1 receptor [2]): 15.5 nM
- ED50 (adenosine A1 receptor [3]): 0.0083 µmol/kg
- mean concentration at maximal increase in S-V interval (adenosine A1 receptor [4]): 6.8 nM
- mean concentration for AV conduction blockade (adenosine A1 receptor [4]): 8.3 nM
